The assay has as its system Mycobacterium tuberculosis. Kind of assay: Minimum inhibitory concentration against Mycobacterium tuberculosis var. bovis strain at 310K, with value expressed as pMIC i.e. -log of MIC (ug/mL). In kind it is functional.

As for `NNC(=O)c1ccc(Br)cc1`, the pMIC is 1.92. Consider `NNC(=O)/C=C/c1ccccc1`, for which the pMIC stood at 3.4.

For the compound `NNC(=O)c1ccccc1[N+](=O)[O-]`, the pMIC stood at 0.52. The figure for `NNC(=O)c1cccnc1` [NICOTINIC ACID HYDRAZIDE] is 2.7. In the case of `NNC(=O)c1ccccn1` it was 3.82. The figure for `COc1cc(C(=O)NN)ccc1O` is 1.52; for `NNC(=O)c1cnccn1` [PYRAZINE CARBOXYLIC ACID HYDRAZIDE] it is 2.82. Take `NNC(=O)C(O)c1ccccc1` (stereo unspecified): the pMIC is reported as 1.4. The figure for `Cn1cncc1C(=O)NN` is 0.52; for `NNC(=O)c1ccc(O)cc1` it is 1.92. Consider `NNC(=O)Cc1ccc(Cl)cc1`, for which the pMIC is given as 2. In the case of `NNC(=O)Cc1ccccc1` it was 1.92. In the case of `Cc1ncc(C(=O)NN)c(O)n1` it was 0.4.

Regarding `Cc1cnccc1C(=O)NN`, the pMIC is recorded as 0.7. In turn, `NNC(=O)c1ccccc1` [BENZOIC ACID HYDRAZIDE] had a pMIC of 3.22. The figure for `NNC(=O)c1ccnc2ccccc12` is 1.1; for `NNC(=O)C1CCNCC1` it is 0.22; for `NNC(=O)C1Cc2ccccc2O1` (stereo unspecified) it is 0.65. As for `NNC(=O)c1c[nH]c(S)n1`, the pMIC was 0.6.

`NNC(=O)c1ccnc(F)c1` returned a pMIC of 3.4. In the case of `NNC(=O)c1ccco1` it was 4.22; in that of `CN1CCC(C(=O)NN)CC1`, 0.22; in that of `NNC(=O)c1ccc([N+](=O)[O-])cc1`, 1.92. The figure for `NNC(=O)Cc1ccncc1` is 1; for `NNC(=O)c1ccnc(Br)c1` it is 1.82; for `CN(C)C(=O)N1CCC(C(=O)NN)CC1` it is 0.22. In the case of `NNC(=O)c1c[nH]cn1` it was 2.7; in that of `NNC(=O)c1cccc([N+](=O)[O-])c1`, 3.22. `NNC(=O)c1cccc(N)c1` had a pMIC of 2.52. The figure for `NNC(=O)c1ccncc1` [ISONIAZID] is 4.2; for `NNC(=O)c1cncs1` it is 2. In the case of `NNC(=O)c1ccccc1N` it was 1.52; in that of `NNC(=O)c1cscn1`, 1.82. Take `NNC(=O)c1ccncc1N`: the pMIC amounted to 2.82.

`NNC(=O)c1ccncn1`: the pMIC amounted to 1.7. The compound `NNC(=O)c1ccc(Cl)cc1` returned a pMIC of 2.52.

Source of the values: ChEMBL document CHEMBL1148365, “Rational design of new antituberculosis agents: receptor-independent four-dimensional quantitative structure-activity relationship analysis of a set of isoniazid derivatives” (2004).
